# Data reported in patent publication US7517657B2, “Peptides for detecting anti-double stranded DNA antibody and uses thereof” (Albert Einstein College of Medicine of Yeshiva University, priority 1995, dated 2009).
# How the values were obtained:
# R4A binding to dsDNA = assay: Peptide inhibition of R4A binding to dsDNA by ELISA; set-up: species or system mouse; settings: fluid phase inhibitor, FIG. 3, FIG. 4
# Procedure: FIG. 3 depicts peptide inhibition of R4A (1 μg/ml) binding to calf thymus double stranded DNA by Enzyme Linked ImmunoSorbent Assay.
# FIG. 4 sets forth a graph representing DWEYS (L and D peptides) (SEQ ID NO:2) inhibition of R4A binding to dsDNA. IMMULON® II plates were coated overnight with 100 μg/ml salmon sperm dsDNA. R4A at a final concentration of 5 μg/ml was incubated at varying concentrations of L or D DWEYS (SEQ ID NO:2) and transferred to the plate precoated with dsDNA. After a 2-hr incubation at 37° C., the plates were washed, and alkaline phosphotase-linked goat anti-mouse IgG2b antibody was added for 1 hour at 37° C. OD after addition of substrate was monitored at 405 nm.
# [1] = test system: production of anti-dsDNA antibodies; assay: Immunization of nonautoimmune BALB/c mice with peptide in complete Freund's adjuvant; type: in vivo; settings: unpublished work
# Text: It is also noteworthy that both the R4A and 52b3 peptides have aromatic residues, tryptophan and tyrosine. […] This apparent difference in specificity is consistent with the finding that they bind distinct peptides. It is also noteworthy that both the R4A and 52b3 consensus motifs have aromatic residues, tryptophan and tyrosine. It is tempting to speculate that the negatively charged aspartate and glutamate residues are analogous to phosphate groups, the aromatic tryptophan residues are analogous to the pentose sugar backbone, and the tyrosine and serine residues are analogous to the hydroxyl groups attached to the pentose moiety in the DNA molecule, thus explaining why these peptides are mimics of DNA. One potential utility of identifying peptide mimotopes for dsDNA is to try to determine if the actual eliciting antigen for production of these antibodies or target antigen for deposition in kidneys might be a protein molecule. […] It is interesting to speculate whether the murine homolog of chicken collagen XIV also has a splice variant containing the same or highly homologous peptide sequence that would be recognized by the R4A antibody.
substance,measurement,setting,value
Asp-Trp-Glu-Tyr-Ser (DWEYS; printed: Asp-Trp-Glu-Tyr-Ser),Inhibition of R4A binding to dsDNA,R4A binding to dsDNA,inhibited dsDNA binding by the appropriate antibody only
same,Production of anti-dsDNA antibodies after immunization,[1],leads to production of anti-dsDNA antibodies
